In article PMC11035592, “Intranasal oxytocin suppresses seizure-like behaviors in a mouse model of NGLY1 deficiency” (Communications Biology, 2024):

Assays:
[1] = system: patients with NGLY1 deficiency; conditions: cited from earlier work
Source text: For epileptic seizures in patients with NGLY1 deficiency, some approved drugs, including levetiracetam, valproate, lamotrigine, and clobazam, have been tested; however, their efficacies were limited.

[2] = system: generally healthy older men (55–95 years old); conditions: chronic intranasal administration, twice daily for four weeks; cited from earlier work
Source text: (§1) The safety of single or chronic intranasal oxytocin administration has been investigated in several clinical studies. […] Based on these clinical studies, oxytocin has the potential to be administered to patients with NG ...

[3] = system: school-age children (8–12 years old); conditions: 90 min and 24 h after a single intranasal administration; cited from earlier work
Source text: as §1

[4] = Oxytocin levels in plasma, brain and spinal cord 5 min after intranasal oxytocin (enzyme immunoassay); type: in vivo, mouse; set-up: Oxytocin level, Thalamus, Mean / Oxytocin level, Hypothalamus, Mean / Oxytocin level, Cortex, Mean / Oxytocin level, Spinal cord, Mean / Oxytocin level, Striatum, Mean / Oxytocin level, Hippocampus, Mean: unit not given here; conditions: for Oxytocin level, Cortex, Mean / Oxytocin level, Hippocampus, Mean / Oxytocin level, Hypothalamus, Mean / Oxytocin level, Plasma, Mean / Oxytocin level, Spinal cord, Mean / Oxytocin level, Striatum, Mean / Oxytocin level, Thalamus, Mean: mean of n = 3; for Oxytocin level, Cortex, % of Control / Oxytocin level, Hippocampus, % of Control / Oxytocin level, Hypothalamus, % of Control / Oxytocin level, Spinal cord, % of Control / Oxytocin level, Striatum, % of Control / Oxytocin level, Thalamus, % of Control: mean, figure corresponds to % of the plasma 0 mg/kg mean; for Oxytocin level, Plasma, % of Control: mean as % of 0 mg/kg plasma mean
Protocol: Delivery of intranasal oxytocin to the central nervous system was confirmed using 17 to 18-week-old female Ngly1^−/− mice.
Fig. 5 Oxytocin levels in the plasma, brain, and spinal cord of Ngly1^−/− mice after intranasal administration of oxytocin. Oxytocin (10, 100 mg/kg) or saline was intranasally administered to female Ngly1^−/− mice (17 or 18-week-old) under anesthesia with 2.5% isoflurane (a). b Plasma, c hippocampus, d striatum, e cerebral cortex, f spinal cord, g thalamus, and h hypothalamus were collected 5 min after the single administration. Oxytocin levels were measured using enzyme immunoassay. Data represent mean + standard deviation and individual values (N = 3). […]
Oxytocin peptide (CAS number 50-56-6) was purchased from AA Blocks (San Diego, CA, USA) and dissolved in saline at a maximum concentration of 200 mg/mL. Female Ngly1^−/− mice were anesthetized with 2.5% isoflurane and intranasally administered with oxytocin using a manual pipette at a volume of 0.5 ml/kg. Oxytocin solutions were prepared in Protein LoBind Tubes (Eppendorf, Hamburg, Germany) just before the intranasal administration.

[5] = female Ngly1−/− mice, 17 to 18-week-old, 10 or 100 mg/kg single intranasal, 5 min after administration, enzyme immunoassay, N = 3, vs saline

## CC[C@@H](C(N)=O)N1CCCC1=O [levetiracetam]
[1]
  efficacy for epileptic seizures: limited

## CC[C@H](C)[C@@H]1NC(=O)[C@H](Cc2ccc(O)cc2)NC(=O)[C@@H](N)CSSC[C@@H](C(=O)N2CCC[C@H]2C(=O)N[C@@H](CC(C)C)C(=O)NCC(N)=O)NC(=O)[C@H](CC(N)=O)NC(=O)[C@H](CCC(N)=O)NC1=O [oxytocin, Oxytocin]
[2]
  tolerability: well-tolerated
[3]
  side-effects: no side-effect
[4]; 10 mg/kg intranasal
  Oxytocin level, Cortex, Mean: 2.20
  Oxytocin level, Cortex, % of Control: 0.776%
  Oxytocin level, Hippocampus, Mean: 8.47
  Oxytocin level, Hippocampus, % of Control: 3%
  Oxytocin level, Hypothalamus, Mean: 87.40
  Oxytocin level, Hypothalamus, % of Control: 31%
  Oxytocin level, Plasma, % of Control: 4479%
  Oxytocin level, Plasma, Mean: 12705.67
  Oxytocin level, Spinal cord, Mean: 2.17
  Oxytocin level, Spinal cord, % of Control: 0.764%
  Oxytocin level, Striatum, Mean: 2.60
  Oxytocin level, Striatum, % of Control: 0.917%
  Oxytocin level, Thalamus, Mean: 3.40
  Oxytocin level, Thalamus, % of Control: 1.2%
[4]; 100 mg/kg intranasal
  Oxytocin level, Cortex, Mean: 15.07
  Oxytocin level, Cortex, % of Control: 5.31%
  Oxytocin level, Hippocampus, Mean: 23.47
  Oxytocin level, Hippocampus, % of Control: 8%
  Oxytocin level, Hypothalamus, Mean: 132.73
  Oxytocin level, Hypothalamus, % of Control: 47%
  Oxytocin level, Plasma, % of Control: 26235%
  Oxytocin level, Plasma, Mean: 74420.67
  Oxytocin level, Spinal cord, Mean: 4.10
  Oxytocin level, Spinal cord, % of Control: 1.45%
  Oxytocin level, Striatum, Mean: 24.23
  Oxytocin level, Striatum, % of Control: 8.54%
  Oxytocin level, Thalamus, Mean: 42.47
  Oxytocin level, Thalamus, % of Control: 15%
[4]; [5]
  increasing trend of oxytocin level in hypothalamus: not observed
  oxytocin level in cerebral cortex: increased
  oxytocin level in hippocampus: increased
  oxytocin level in plasma: increased
  oxytocin level in spinal cord: increased
  oxytocin level in striatum: increased
  oxytocin level in thalamus: increasing trend

## CCCC(CCC)C(=O)O [valproate]
[1]
  efficacy for epileptic seizures: limited

## Nc1nnc(-c2cccc(Cl)c2Cl)c(N)n1 [lamotrigine]
[1]
  efficacy for epileptic seizures: limited

## CN1C(=O)CC(=O)N(c2ccccc2)c2cc(Cl)ccc21 [clobazam]
[1]
  efficacy for epileptic seizures: limited
